{"source": "paper PMC9043997", "about": "“LEAP2 reduces postprandial glucose excursions and ad libitum food intake in healthy men” (Cell Reports Medicine, 2022)", "key": {"[1]": {"tested_on": "healthy men", "assay": "Visual analog scale ratings of appetite-related sensations, crossover study", "assay_type": "in vivo, human", "details": "healthy men n = 20, iv LEAP2 ~25 pmol/kg/min, 100 mm VAS, paired t test of AUC", "protocol": "Sensations of hunger, satiety, prospective food consumption, fullness, nausea, comfort and thirst were rated on 100 mm VAS at timepoints −35, 0, 30, 75, 105, 135, 165, 195, 225 and 255 min and after the ad libitum meal.[34] After eating, participants evaluated the ad libitum meal by VAS with a score (median (interquartile range)) for appearance of 55 (36–72) mm, taste 65 (42–76) mm, off-notes 17 (7–31) mm, smell 63 (50–72) mm and overall impression 59 (45–73) mm indicating a moderate evaluation of the meal."}, "[2]": {"tested_on": "healthy men", "assay": "Plasma insulin, C-peptide and C-peptide/glucose ratio during LEAP2 infusion, crossover study", "assay_type": "in vivo, human", "details": "mean ± SEM", "description": "The infusion was terminated when participants had finished eating.\nFor analysis of plasma glucose, blood was distributed in fluoride heparin-coated tubes, centrifuged immediately for 30 s (12,100 g, room temperature) and measured bedside by the glucose oxidase method (YSI 2900 Biochemistry Analyzer; YSI Incorporated, Yellow Springs, Ohio, USA). For analysis of LEAP2, blood was collected in chilled K3EDTA tubes each containing 250 KIU of aprotinin. For analysis of acyl ghrelin, blood was collected in chilled K2EDTA tubes added 20 μL pefabloc (100 mg/mL; Merck Millipore, Burlington, Massachusetts, USA). Subsequently, pefabloc-treated plasma was acidified with HCl (12.5 μL 2M HCl per 500 μL plasma; Merck Millipore, Burlington, Massachusetts, USA). For analysis of glucagon, blood was collected in K2EDTA tubes. For analysis of GH, insulin, C-peptide, free fatty acids, glycerol, triglycerides and acetaminophen (paracetamol), blood was collected in tubes with lithium and heparin. All tubes were immediately cooled on ice, centrifuged for 15 min (2,000 g, 4°C) and stored at −80°C until analysis. LEAP2 concentrations were determined by an in-house radioimmunoassay directed against the N-terminal part of LEAP2. LEAP-2 was used for standards, and the tracer was a peptide composed of the 12 N-terminal amino acids of LEAP2, with a ^125I-labelled tyrosine added to the C-terminal end. The precision and accuracy of the assay were evaluated based on European Medicines Agency's guidelines for bioanalytical assay validation. […] Due to supply chain disruptions from the COVID-19 pandemic, acyl ghrelin was only measured in plasma samples at timepoints 0, 60, 105, 165 and 255 min. […] Plasma GH was measured by Immunodiagnostic system-iSYS assay (IS-3700; IDS Limited, Boldon, UK). The assay is based on chemiluminesence technology and was performed according to the manufacturer’|'s instructions. […] For analysis of glucagon, plasma was extracted in a final concentration of 70% ethanol. Glucagon was measured using a C-terminal directed antiserum (code number 4305) measuring glucagon of pancreatic origin as previously described.[40] […] Plasma insulin and C-peptide were measured using a two-sided electrochemiluminescence immunoassay (Atellica IM Analyzer; Siemens Healthcare, Ballerup, Denmark). Plasma triglycerides and acetaminophen were analyzed by spectrophotometric methods following enzymatic hydrolysis and oxidation (Siemens Atellica CH 930; Siemens Healthcare, Ballerup, Denmark). Plasma concentrations of free fatty acids and glycerol were determined by enzymatic methods modified to run on a COBAS 6000 automatic analyzer (Roche, Rødovre, Denmark) using a NEFA-HR assay (Wako Chemicals, Neuss, Germany) and glycerol assay (Randox Laboratories, Crumlin, UK), respectively.\nUnless otherwise stated, results are presented as mean ± SEM. Baseline values were calculated as a mean of timepoints −35, −10 and 0 min or, when only available −10 and 0 min. Baseline values for the postprandial period were calculated as a mean of timepoint 60 min. Calculations of AUC were based on the trapezoidal rule. AUC values are reported for the period 0 to 255 min. To assess the fasting and postprandial periods separately, AUC values are reported for the periods 0 to 60 min and 60 to 255 min, respectively. Student’s paired t test was used to test for differences in baseline, peak, time to peak, AUC and mean values and ad libitum food intake in men."}, "[3]": {"tested_on": "GHSR-null mice", "assay": "Plasma glucose and food intake after subcutaneous LEAP2 in GHSR-null mice", "assay_type": "in vivo, mouse", "details": "female GHSR-null mice n = 8, LEAP2 3 μmol/kg subcutaneous", "protocol": "Food intake and blood glucose measurements were measured in female GHSR-null mice (n = 8) and wild-type littermates (n = 10) (14–24 weeks of age). Mice were double-housed with matching genotype and age. All mice were fasted for four hours and randomized by mean body weight per cage and allocated into either vehicle (saline) or LEAP2 administration on the first day of the study. LEAP2 or vehicle was administered subcutaneously just before start of dark phase (6 PM). By start of dark phase, mice had ad libitum access to water and a normal chow diet. Cumulative food intake was measured one, two and four hours after administration and calculated as the average food intake per cage per g body weight of each mouse, respectively. Blood glucose was measured in blood from a tail puncture at baseline and one, two and four hours after administration by use of a glucometer (Contour ™xt meter; Ascensia Diabetes Care, Basel, Switzerland). One week later, mice underwent the same procedure, but with the opposite treatment. The concentration of the LEAP2 dose was 3 μmol/kg."}, "[4]": {"tested_on": "healthy men", "assay": "Brown adipose tissue thermogenesis by thermal imaging", "assay_type": "in vivo, human", "details": "iv LEAP2 ~25 pmol/kg/min, thermal imaging camera", "protocol": "To assess BAT thermogenesis, temperature of the upper chest was measured from −10 to 0 min, 0 to 15 min, 90 to 105 min and 180 to 195 min using a thermal imaging camera (FLIR A655sc; FLIR Systems, Wilsonville, Oregon, USA). Participants were positioned approximately one meter from the camera in a hospital bed with slight elevation of the head and wearing long-sleeved shirts that exposed the upper chest. The emissivity for measurement of human skin temperatures was set to 0.98 as detailed by the manufacturer. Thermal images were collected at 30-s intervals and analyzed using the FLIR tools program (FLIR Systems, Wilsonville, Oregon, USA). Post hoc, the two supraclavicular regions and a region corresponding to the manubrium of the sternum were marked as regions of interest and the maximum temperature per image was recorded. An average of records from the two supraclavicular regions was used. The manubrium region was used as a negative control reflecting the overall cutaneous heat production.[37], [38], [39] For analysis of BAT thermogenesis, manubrium-corrected temperature was calculated as the average of the supraclavicular skin temperatures minus the manubrium skin temperature. […] Average room temperature was 22.5 ± 0.06 °C adjusted by two air conditioners (Electrolux EXP35U538CW; AB Electrolux, Stockholm, Sweden) and recorded four times during each experimental day. […]"}, "[5]": {"details": "healthy men n = 20, LEAP2 day, before infusion"}, "[6]": {"details": "healthy men n = 20, iv LEAP2 ~25 pmol/kg/min, 0 to 255 min"}, "[7]": {"details": "healthy men n = 20, iv LEAP2 ~25 pmol/kg/min, fasting period"}, "[8]": {"details": "healthy men n = 20, iv LEAP2 ~25 pmol/kg/min, liquid mixed meal at 65 min"}, "[9]": {"details": "healthy men n = 20, iv LEAP2 ~25 pmol/kg/min, postprandial period"}, "[10]": {"details": "healthy men n = 20, iv LEAP2 ~25 pmol/kg/min, time = 60 min"}}, "note": "Where a SMILES comes first, the peptide text is derived from it. Bridges are numbered along the chain shown (N, C = ends).", "data": [{"smiles": "CC[C@H](C)[C@@H]1NC(=O)[C@@H]2CSSC[C@@H](C(=O)N[C@@H](CO)C(=O)N[C@@H](CC(C)C)C(=O)N[C@@H](CO)C(=O)N[C@H](C(=O)N[C@@H](C)C(=O)N[C@@H](CCC(N)=O)C(=O)N[C@@H](CCC(=O)O)C(=O)O)C(C)C)NC(=O)[C@H](CCCNC(=N)N)NC(=O)[C@H](CCCNC(=N)N)NC(=O)[C@H](CCCCN)NC(=O)[C@H](CCCNC(=N)N)NC(=O)[C@H](CSSC[C@H](NC(=O)[C@H](CO)NC(=O)[C@H](C)NC(=O)CNC(=O)[C@@H](NC(=O)[C@@H]3CCCN3C(=O)[C@H](CCCNC(=N)N)NC(=O)[C@H](CC(C)C)NC(=O)[C@H](CO)NC(=O)[C@@H](NC(=O)CNC(=O)[C@H](CCCNC(=N)N)NC(=O)[C@H](Cc3c[nH]c4ccccc34)NC(=O)[C@H](Cc3ccccc3)NC(=O)[C@@H]3CCCN3C(=O)[C@@H](NC(=O)[C@@H](N)CCSC)[C@@H](C)O)C(C)C)[C@@H](C)CC)C(=O)N[C@@H](CCCNC(=N)N)C(=O)N[C@@H](CC(=O)O)C(=O)N[C@@H](CC(=O)O)C(=O)N[C@@H](CO)C(=O)N[C@@H](CCC(=O)O)C(=O)N2)NC(=O)[C@H](CC(C)C)NC(=O)[C@H](CCCNC(=N)N)NC(=O)[C@H]([C@@H](C)O)NC1=O", "note": "[LEAP2, liver-expressed antimicrobial peptide 2] (H-MTPFWRGVSLRPIGASCRDDSECITRLCRKRRCSLSVAQE-OH; disulfide 17-28, 23-33 (inferred); N-terminus and C-terminus assumed)", "values": [{"measurement": "VAS ratings of hunger, satiety, prospective food consumption, fullness, nausea, comfort, or thirst, LEAP2 vs placebo", "setting": "[1]", "result": "no differences"}, {"measurement": "C-peptide Baseline", "setting": "[2]; [5]", "result": "360 ± 21.4", "unit": "pmol/L"}, {"measurement": "Insulin Baseline", "setting": "[2]; [5]", "result": "36.4 ± 1.70", "unit": "pmol/L"}, {"measurement": "C-peptide AUC", "setting": "[2]; [6]", "result": "218 ± 11.7", "unit": "nmol·min/L"}, {"measurement": "Insulin AUC", "setting": "[2]; [6]", "result": "33.8 ± 2.63", "unit": "nmol·min/L"}, {"measurement": "C-peptide AUC0–60 min", "setting": "[2]; [7]", "result": "22.5 ± 1.18", "unit": "nmol·min/L"}, {"measurement": "Insulin AUC0–60 min", "setting": "[2]; [7]", "result": "2.39 ± 0.09", "unit": "nmol·min/L"}, {"measurement": "C-peptide Peak", "setting": "[2]; [8]", "result": "1,524 ± 106 pmol/L"}, {"measurement": "C-peptide Time to peak", "setting": "[2]; [8]", "result": "136 ± 9.01", "unit": "min"}, {"measurement": "Insulin Peak", "setting": "[2]; [8]", "result": "347 ± 38.6", "unit": "pmol/L"}, {"measurement": "Insulin Time to peak", "setting": "[2]; [8]", "result": "110 ± 6.28", "unit": "min"}, {"measurement": "C-peptide AUC60–255 min", "setting": "[2]; [9]", "result": "196 ± 11.2", "unit": "nmol·min/L"}, {"measurement": "Insulin AUC60–255 min", "setting": "[2]; [9]", "result": "31.5 ± 2.60", "unit": "nmol·min/L"}, {"measurement": "C-peptide Postprandial baseline", "setting": "[2]; [10]", "result": "365 ± 20.2", "unit": "pmol/L"}, {"measurement": "Insulin Postprandial baseline", "setting": "[2]; [10]", "result": "38.6 ± 2.09", "unit": "pmol/L"}, {"measurement": "cumulative food intake after dosing vs vehicle", "setting": "[3]", "result": "no effect"}, {"measurement": "plasma glucose after dosing vs vehicle", "setting": "[3]", "result": "did not affect plasma glucose"}, {"measurement": "BAT thermogenesis (manubrium-corrected supraclavicular skin temperature), LEAP2 vs placebo", "setting": "[4]", "result": "no differences"}]}]}
